According to patent publication US6916843B1, “Anti-inflammatory actions of cytochrome P450 expoxygenase-derived eicosanoids” (The United States of America as represented by the …, priority 1999, dated 2005):

Experiments:
CYP2J2 = target: T1, CYP2J2 (Homo sapiens, UniProt P51589); assay: Arachidonic acid epoxygenase metabolite formation in CYP2J2-transfected bovine aortic endothelial cells (HPLC)
T1 construct: The CYP2J2 cDNA (1.9 kb) or GFP cDNA (0.75 kb) were subcloned into the plasmid pcDNA3.1; expressed in transfected cells; host or cells: bovine aortic endothelial cells (BAECs), transient transfection with pcDNA3.1/CYP2J2
T1 sequence (P51589 1-502): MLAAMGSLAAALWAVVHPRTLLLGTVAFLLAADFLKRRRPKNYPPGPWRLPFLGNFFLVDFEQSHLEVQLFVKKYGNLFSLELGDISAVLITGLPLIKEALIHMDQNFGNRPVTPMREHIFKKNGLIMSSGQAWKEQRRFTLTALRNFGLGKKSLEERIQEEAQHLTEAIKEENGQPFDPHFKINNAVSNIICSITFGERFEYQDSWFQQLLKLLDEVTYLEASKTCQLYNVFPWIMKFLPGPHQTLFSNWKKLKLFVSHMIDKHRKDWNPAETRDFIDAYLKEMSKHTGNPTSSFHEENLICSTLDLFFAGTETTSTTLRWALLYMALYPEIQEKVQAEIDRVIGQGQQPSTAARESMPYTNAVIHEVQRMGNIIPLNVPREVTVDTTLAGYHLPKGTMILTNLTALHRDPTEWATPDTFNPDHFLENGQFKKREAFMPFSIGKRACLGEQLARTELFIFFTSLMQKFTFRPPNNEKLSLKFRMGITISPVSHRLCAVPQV
Description: To study the formation of EETs by CYP2J2 in endothelial cells, we measured EET synthesis from bovine endothelial cells transfected with CYP2J2 cDNA. Early passage bovine aortic endothelial cells were grown to 60-70% confluence and transfected with either pcDNA3.1 or pcDNA3.1/CYP2J2 using Fugene™ 6 reagent (Boehringer Mannheim Corp.) according to the manufacturer's instructions. Using this method, the transfection efficiency was 10-20%. Forty-eight hours post-transfection, cells were washed twice with phosphate-buffered saline and incubated with freshly purified [^3H]arachidonic acid (185 Ci/mmol, 4-5 μCi/175 mm^2 flask) and unlabeled arachidonic acid (10 μM) was added before addition of arachidonic acid. At various time points, the media and cells were removed and extracted with diethyl ether. The combined organic phases were dried under a nitrogen stream, resolved by reverse-phase high performance liquid chromatography (HPLC) and quantified by liquid scintillation as described by Wu et al., 271 J. Biol. Chem. 3460 (1996). […]
These control GFP-transfected cells metabolized radiolabeled arachidonic acid to epoxygenase metabolites (EETs and DHETs) at a rate of ˜8 pmol/min/10^7 cells (FIG. 6). Endothelial cell arachidonic acid metabolism was determined as follows: Forty-eight hours after transfection with either pcDNA3.1/GFP or pcDNA3.1/CYP2J2, BAECs were incubated with freshly purified [5, 6, 8, 9, 11, 12, 14, 15-^3H]arachidonic acid (185 Ci/mmol, 4-5 μCi/175-mm^2 flask) in serurm-free culture medium at 37° C. for 30-120 min. […] The BAECs and culture medium were then collected and the reaction products extracted into ethyl ether, dried under a nitrogen stream, analyzed by reverse-phase HPLC, and quantified by on-line liquid scintillation using a Radiomatic Flo-One β detector (Radiomatic Instruments, Tampa, Fla.) as described (Wu et al., 271 J. Biol. Chem. 12551 (1996), Node et al., 285 Science 1276-1279 (1999)). […]

F2-isoprostanes = assay: Cellular F2-isoprostanes in BAECs exposed to hypoxia-reoxygenation (GC/MS); format: cell-based, bovine; conditions: CYP2J2-transfected vs GFP-transfected BAECs
Description: F2-Isoprostane levels in BAECs were measured using a modification of the procedure described by Morrow & Roberts, 300 Methods Enzymol. 3-12 (1999). Briefly, cells were collected by treatment with trypsin and stored at −80° C. until analyzed. BHT was added to the freshly-thawed samples to inhibit oxidation during sample processing. The samples (4×10^7 cells) were incubated with KOH for 30 minutes at 40° C. The samples were then acidified to pH 3.0, 3 ng of a d4 8-iso-PGF2α internal standard was added, and the precipitated protein was removed by centrifugation at 375×g. The F2-isoprostanes in the supernatant were concentrated by passage over C18 Sep-pak (Millipore, Marlborough, Mass.), followed by Silica Sep-pak (Millipore) columns. The eluant, containing a mixture of the d4 internal standard and endogenous cellular F2-isoprostanes, was dried under nitrogen and derivatized to the pentaflorobenzyl (PFB) ester using […] according to the protocol of Schweer et al., 32 J. Mass Spectrom. 1362-1370 (1997). The PFB-derivatized isoprostanes were purified by TLC, and the bands were collected based on comparison of their Rf values to those of authentic standards. […] Quantitation was done by GC/NCI/MS on a 25m Supelco DB 5 column (Supelco, Bellefonte, Pa.). […]

E-selectin expression = assay: Cell-surface enzyme immunoassay of TNF-α-induced E-selectin expression in endothelial cells; format: cell-based, human; conditions: 100 nM, TNF-α 10 ng/ml
Description: FIG. 2 is a set of bar graphs of cell-surface enzyme immunoassays. […] The difference between treatment with TNF-α alone and in the presence of [11,12]-EET were statistically significant (*p<0.05, **p<0.01), OD, optical density. […] After stimulation with TNF-α (10 ng/ml) in the presence or absence of EET, promoter activity was determined relative to basal activity. *p<0.01 vs. TNF-α alone.
To determine the biological effects of EETs, we treated tumor necrosis factor alpha (TNF-α)-stimulated human endothelial cells with physiological relevant concentrations (1-100 nM) of [5,6]-EET, [8,9]-EET, [11,12]-EET, [14,15]-EET, [11,12]-DHET.

RelA = assay: Cellular localization of RelA in TNF-α-stimulated endothelial cells; format: cell-based; conditions: co-treatment with TNF-α
Description: Co-treatment with [11,12]-EET prevented the nuclear accumulation of RelA. Since the nuclear translocation of RelA requires the degradation of its endogenous cytoplasmic inhibitor, inhibitor kappa B (IκB-α), we followed the fate of IκB-α after TNF-α stimulation in the presence or absence of [11,12]-EET. Stimulation of human endothelial cells with TNF-α caused a rapid and almost complete disappearance of IκB-α which was prevented by co-treatment with [11,12]-EET, but not [14,15]-EET.

Molecule	rate of formation of epoxygenase metabolites (EETs and DHETs) (CYP2J2) [pmol/minute/10^7 cells]	hypoxia-reoxygenation-induced increase in cellular F2-isoprostanes (F2-isoprostanes)	inhibition of E-selectin expression (E-selectin expression)	effect on TNF-α-induced nuclear accumulation of RelA (RelA)
CYP2J2: CYP2J2 cDNA (1.9 kb) subcloned into plasmid pcDNA3.1, transfected into endothelial cells	17.8±2.3	significantly attenuated	–	–
CCCCC/C=C\C[C@H]1O[C@H]1C/C=C\C/C=C\CCCC(=O)O [[11,12]-EET]	–	–	inhibited	prevented
